Measurements from patent US20260201347A1, “ARTIFICIAL BIFUNCTIONAL ENZYME COMPRISING A MYELOPEROXIDASE ACTIVITY AND A GLUCOSE OXIDASE ACTIVITY AND APPLICATIONS THEREOF” (UNIVERSITÉ DE BORDEAUX, priority 2022, published 2026).
Where “and” joins values, the source holds several entries; their conditions need not be identical. Equal values may be shown once. Read-outs that look alike come from different tables or passages of the source.

Tests used:
[1] = biological target: T1, RbMPO-LEKREAEALEKREAEA-GOx chimera (Rhodopirellula baltica myeloperoxidase, SEQ ID NO: 10); linker SEQ ID NO: 6; Penicillium amagasakiens glucose oxidase, SEQ ID (Penicillium amagasakiense, UniProt P81156); assay: Coupled active sites, HOCl production from glucose, APF assay (Table 9), linker LEKREAEALEKREAEA; assay type: biochemical; details: dimer/monomer; fixed NaCl 20 mM, pH7.5
T1 construct: 6His (in the pET21a vector behind the XhoI site); made in house; host or cells: E. coli BL21Star (DE3)
Procedure: (§1) Each experiment was performed in triplicate.
(§2) The activity of the two active sites was then assessed in conjunction to each other (FIG. 1).
(§3) Briefly, the aim was to measure the production of HOCl from glucose and NaCl as respective substrates of the enzymes, using the APF probe. Two types of kinetics were performed: • i) kinetics at various concentrations of glucose and a fixed concentration of NaCl, and • ii) kinetics at various concentration of NaCl and a fixed concentration of glucose.
T1 sequence (P81156 with tags, fused parts or gaps): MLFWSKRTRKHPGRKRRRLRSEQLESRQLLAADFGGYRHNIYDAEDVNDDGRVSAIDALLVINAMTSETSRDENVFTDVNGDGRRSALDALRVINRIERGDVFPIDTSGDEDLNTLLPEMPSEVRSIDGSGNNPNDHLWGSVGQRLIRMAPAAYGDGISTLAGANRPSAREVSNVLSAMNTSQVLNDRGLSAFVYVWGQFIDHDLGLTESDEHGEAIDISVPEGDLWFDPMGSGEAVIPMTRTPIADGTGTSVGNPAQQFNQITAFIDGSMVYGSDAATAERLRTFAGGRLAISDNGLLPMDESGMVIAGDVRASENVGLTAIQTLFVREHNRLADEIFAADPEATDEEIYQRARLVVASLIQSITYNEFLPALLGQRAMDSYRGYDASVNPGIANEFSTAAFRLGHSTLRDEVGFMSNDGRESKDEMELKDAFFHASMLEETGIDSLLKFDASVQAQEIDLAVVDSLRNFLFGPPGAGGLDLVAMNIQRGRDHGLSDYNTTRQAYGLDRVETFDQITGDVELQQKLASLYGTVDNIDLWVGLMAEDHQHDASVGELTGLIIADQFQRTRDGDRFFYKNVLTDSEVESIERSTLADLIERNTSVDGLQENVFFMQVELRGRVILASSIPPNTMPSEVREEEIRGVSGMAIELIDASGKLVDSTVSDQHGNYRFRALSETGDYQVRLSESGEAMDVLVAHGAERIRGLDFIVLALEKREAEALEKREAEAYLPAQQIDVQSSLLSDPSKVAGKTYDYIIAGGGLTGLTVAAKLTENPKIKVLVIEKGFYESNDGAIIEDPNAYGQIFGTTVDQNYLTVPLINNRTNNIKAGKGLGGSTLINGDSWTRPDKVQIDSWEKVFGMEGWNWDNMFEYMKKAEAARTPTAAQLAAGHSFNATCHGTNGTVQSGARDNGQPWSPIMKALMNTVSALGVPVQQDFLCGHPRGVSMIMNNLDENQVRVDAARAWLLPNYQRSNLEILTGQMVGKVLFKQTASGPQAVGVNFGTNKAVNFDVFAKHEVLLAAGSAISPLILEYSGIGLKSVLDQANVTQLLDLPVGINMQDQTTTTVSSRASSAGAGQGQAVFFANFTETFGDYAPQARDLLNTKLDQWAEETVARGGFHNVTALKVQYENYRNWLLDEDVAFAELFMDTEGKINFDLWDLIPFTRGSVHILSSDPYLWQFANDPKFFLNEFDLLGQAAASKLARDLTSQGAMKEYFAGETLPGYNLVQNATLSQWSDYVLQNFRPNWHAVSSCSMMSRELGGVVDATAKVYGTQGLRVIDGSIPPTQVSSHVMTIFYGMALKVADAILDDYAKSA

[2] = biological target: T2, RbMPO-LEGGEAEA-GOx chimera (Rhodopirellula baltica myeloperoxidase, SEQ ID NO: 10; linker SEQ ID NO: 4; Penicillium amagasakiens glucose oxidase, SEQ ID NO: 12) (Penicillium amagasakiense, UniProt P81156); assay: Coupled active sites, HOCl production from glucose, APF assay (Table 9), linker LEGGEAEA; assay type: biochemical; parameters: 6His (in the pET21a vector behind the XhoI site); made in house; host or cells: E. coli BL21Star (DE3)
Procedure: as §1, §2, §3

[3] = biological target: T3, RbMPO-GOx chimera, no linker (Rhodopirellula baltica myeloperoxidase, SEQ ID NO: 10, fused to Penicillium amagasakiens glucose oxidase, SEQ ID NO: 12) (Penicillium amagasakiense, UniProt P81156); assay: Coupled active sites, HOCl production from glucose, APF assay (Table 9), chimera without linker; assay type: biochemical; parameters: heme and FAD reconstituted; monomer; GOx mature part (P81156 19-605); details: monomer; fixed NaCl 20 mM, pH7.5
Procedure: as §1, §2, §3
Target sequence in this assay (P81156 19-605, change not shown): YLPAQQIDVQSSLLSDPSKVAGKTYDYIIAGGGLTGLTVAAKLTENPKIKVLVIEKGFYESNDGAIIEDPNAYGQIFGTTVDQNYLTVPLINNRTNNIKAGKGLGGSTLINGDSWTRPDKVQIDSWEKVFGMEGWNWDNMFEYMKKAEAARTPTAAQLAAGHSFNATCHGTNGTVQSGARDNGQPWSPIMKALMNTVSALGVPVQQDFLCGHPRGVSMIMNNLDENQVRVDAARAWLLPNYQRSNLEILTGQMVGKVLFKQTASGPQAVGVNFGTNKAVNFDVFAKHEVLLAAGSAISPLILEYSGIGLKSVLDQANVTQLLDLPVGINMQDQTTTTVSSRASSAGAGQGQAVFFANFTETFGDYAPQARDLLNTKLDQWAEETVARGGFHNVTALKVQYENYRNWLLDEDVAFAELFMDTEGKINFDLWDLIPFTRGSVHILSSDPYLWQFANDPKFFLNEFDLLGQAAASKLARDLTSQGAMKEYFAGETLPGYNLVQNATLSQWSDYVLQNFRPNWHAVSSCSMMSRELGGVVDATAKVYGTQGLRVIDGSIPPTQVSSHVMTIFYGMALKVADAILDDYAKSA

[4] = biological target: T4, RbMPO-LGKRGAGA-GOx chimera (Rhodopirellula baltica myeloperoxidase, SEQ ID NO: 10; linker SEQ ID NO: 5; Penicillium amagasakiens glucose oxidase, SEQ ID NO: 12) (Penicillium amagasakiense, UniProt P81156); assay: Coupled active sites, HOCl production from glucose, APF assay (Table 9), linker LGKRGAGA; assay type: biochemical; details: trimer; fixed NaCl 20 mM, pH7.5
T4 construct: 6His (in the pET21a vector behind the XhoI site); made in house; host or cells: E. coli BL21Star (DE3)
Procedure: as §1, §2, §3

[5] = biological target: T2, RbMPO-LEGGEAEA-GOx chimera (Rhodopirellula baltica myeloperoxidase, SEQ ID NO: 10; linker SEQ ID NO: 4; Penicillium amagasakiens glucose oxidase, SEQ ID NO: 12); details: monomer 1, NaSCN as a substrate, 50 mM glucose, pH6, 37° C.
Procedure: Initial rate measurements under steady state conditions were made with a BioLogic SFM400 stopped-flow by using a single-mixing mode and Xe/Hg lamp and a TC100/10 cell. One syringe was filled with the chimera and another one with glucose and NaSCN. The concentrations of the chimera and glucose were fixed (300 nM and 50 mM, respectively), and measurement was carried out at 37° C. and at 240 nm. The appearance of −OSCN (hypothiocyanate) was measured at 240 nm at 37° C. in a 50 mM pH6 sodium phosphate buffer. At least five shots of 120 s were performed for each value of the NaSCN substrate range with the following sample period: 20 μs, 20 ms, 20 ms with 2000 points per period. Slopes were calculated from shots average for each concentration and kss (s^−1) were determined using slopes with the following formula:
The molar extinction coefficient of −OSCN is ε−OSCN=[…]. Collecting data were analysed with Origin software and kss values were fitted with Michaëlis-Menten equation.

[6] = biological target: RbMPO-LEKREAEALEKREAEA-GOx chimera (Rhodopirellula baltica myeloperoxidase, SEQ ID NO: 10); linker SEQ ID NO: 6; Penicillium amagasakiens glucose oxidase, SEQ ID (Penicillium amagasakiense, UniProt P81156); details: 20 mM NaCl, pH7.5; for Km: read-out: KM H2O2; for Ki: read-out: Ki H2O2, substrate inhibition
Procedure: The fluorescent probe aminophenyl fluorescein (APF) (λexcitation=485 nm and λemission=525 nm) was used to measure the HOCl production by the chimera, as a measure of its chlorination activity. […] For all experiments, 10 μM APF was used in each assay with 50 mM NaPi buffer pH7.5 QSP 20 μL (384-well plate). Each experiment was performed in triplicate. A 10-30 min. kinetic was performed for each range value and the increase rate of fluorescence intensity was compared to the standard fluorescein range. The measured fluorescence per second was thus proportional to the amount of fluorescein, which in turn was proportional to the amount of HOCl produced by the chimeras.

[7] = biological target: RbMPO-LEKRPEAEA-GOx chimera (Rhodopirellula baltica myeloperoxidase, SEQ ID NO: 10); linker SEQ ID NO: 8; Penicillium amagasakiens glucose oxidase, SEQ ID NO: 12 (Penicillium amagasakiense, UniProt P81156); details: 20 mM NaCl, pH7.5; for Km: read-out: KM H2O2; for Ki: read-out: Ki H2O2, substrate inhibition
Procedure: (§4) The fluorescent probe aminophenyl fluorescein (APF) (λexcitation=485 nm and λemission=525 nm) was used to measure the HOCl production by the chimera, as a measure of its chlorination activity. Three tests were performed: (1) at different glucose concentrations (0, 1, 2, 3, 4, 5, 6, 8, 10, 15, 20 mM) with fixed concentrations of chimera (1 μM) and NaCl (20 mM); (2) at different NaCl concentrations (0, 10, 20, 50, 100, 250, 500, 750 μM and 1 mM) with fixed concentrations of chimera (1 μM) and glucose (20 mM); (3) at different H2O2 concentrations (0, 0.01, 0.02, 0.05, 0.079, 0.1, 0.25, 0.5, 0.75, 1, 2, 4, 6, 8, 10, 20, 40, 60, 80, 100, 200, 500 mM) with fixed concentrations of chimera (1 μM) and NaCl (20 mM). For all experiments, 10 μM APF was used in each assay with 50 mM NaPi buffer pH7.5 QSP 20 μL (384-well plate). Each experiment was performed in triplicate. A 10-30 min. kinetic was performed for each range value and the increase rate of fluorescence intensity was compared to the standard fluorescein range. The measured fluorescence per second was thus proportional to the amount of fluorescein, which in turn was proportional to the amount of HOCl produced by the chimeras.
(§5) Steady-state kinetic parameters were determined by adjustment of experimental data to the following equations depending on the appearance of saturation curves: […]
(§6) In order to determine the RbMPO activity of the chimeras, a H2O2 concentration range was performed at a fixed concentration of NaCl. HOCl reacted with APF probe and apparition of fluorescein was monitored.

[8] = biological target: RbMPO-GGGGGGGG-GOx chimera (Rhodopirellula baltica myeloperoxidase, SEQ ID NO: 10; linker SEQ ID NO: 9; Penicillium amagasakiens glucose oxidase, SEQ ID NO: 12) (Penicillium amagasakiense, UniProt P81156); details: 20 mM NaCl, pH7.5; for Km: read-out: KM H2O2; for Ki: read-out: Ki H2O2, substrate inhibition
Procedure: as §4, §5, §6

[9] = biological target: RbMPO-LEKREAEA-GOx chimera (Rhodopirellula baltica myeloperoxidase, SEQ ID NO: 10; linker SEQ ID NO: 7; Penicillium amagasakiens glucose oxidase, SEQ ID NO: 12) (Penicillium amagasakiense, UniProt P81156); details: trimer, 20 mM NaCl, pH7.5
Procedure: as §4, §5, §6

[10] = biological target: T2, RbMPO-LEGGEAEA-GOx chimera (Rhodopirellula baltica myeloperoxidase, SEQ ID NO: 10; linker SEQ ID NO: 4; Penicillium amagasakiens glucose oxidase, SEQ ID NO: 12)
Procedure: as §4, §5, §6

[11] = biological target: T3, RbMPO-GOx chimera, no linker (Rhodopirellula baltica myeloperoxidase, SEQ ID NO: 10, fused to Penicillium amagasakiens glucose oxidase, SEQ ID NO: 12); details: monomer, 20 mM NaCl, pH7.5
Procedure: as §4, §5, §6

[12] = tested on: RbMPO-LGKRGAGA-GOx chimera (Rhodopirellula baltica myeloperoxidase, SEQ ID NO: 10; linker SEQ ID NO: 5; Penicillium amagasakiens glucose oxidase, SEQ ID NO: 12); details: result in words
Procedure: as §4, §5

[13] = mixture of oligomers, 15 mM glucose and 500 mM NaCl
[14] = read-out: Ki H2O2, substrate inhibition

Sequence of RbMPO-GGGGGGGG-GOx chimera (Rhodopirellula baltica myeloperoxidase, SEQ ID NO: 10; linker SEQ ID NO: 9; Penicillium amagasakiens glucose oxidase, SEQ ID NO: 12) (P81156 with tags, fused parts or gaps): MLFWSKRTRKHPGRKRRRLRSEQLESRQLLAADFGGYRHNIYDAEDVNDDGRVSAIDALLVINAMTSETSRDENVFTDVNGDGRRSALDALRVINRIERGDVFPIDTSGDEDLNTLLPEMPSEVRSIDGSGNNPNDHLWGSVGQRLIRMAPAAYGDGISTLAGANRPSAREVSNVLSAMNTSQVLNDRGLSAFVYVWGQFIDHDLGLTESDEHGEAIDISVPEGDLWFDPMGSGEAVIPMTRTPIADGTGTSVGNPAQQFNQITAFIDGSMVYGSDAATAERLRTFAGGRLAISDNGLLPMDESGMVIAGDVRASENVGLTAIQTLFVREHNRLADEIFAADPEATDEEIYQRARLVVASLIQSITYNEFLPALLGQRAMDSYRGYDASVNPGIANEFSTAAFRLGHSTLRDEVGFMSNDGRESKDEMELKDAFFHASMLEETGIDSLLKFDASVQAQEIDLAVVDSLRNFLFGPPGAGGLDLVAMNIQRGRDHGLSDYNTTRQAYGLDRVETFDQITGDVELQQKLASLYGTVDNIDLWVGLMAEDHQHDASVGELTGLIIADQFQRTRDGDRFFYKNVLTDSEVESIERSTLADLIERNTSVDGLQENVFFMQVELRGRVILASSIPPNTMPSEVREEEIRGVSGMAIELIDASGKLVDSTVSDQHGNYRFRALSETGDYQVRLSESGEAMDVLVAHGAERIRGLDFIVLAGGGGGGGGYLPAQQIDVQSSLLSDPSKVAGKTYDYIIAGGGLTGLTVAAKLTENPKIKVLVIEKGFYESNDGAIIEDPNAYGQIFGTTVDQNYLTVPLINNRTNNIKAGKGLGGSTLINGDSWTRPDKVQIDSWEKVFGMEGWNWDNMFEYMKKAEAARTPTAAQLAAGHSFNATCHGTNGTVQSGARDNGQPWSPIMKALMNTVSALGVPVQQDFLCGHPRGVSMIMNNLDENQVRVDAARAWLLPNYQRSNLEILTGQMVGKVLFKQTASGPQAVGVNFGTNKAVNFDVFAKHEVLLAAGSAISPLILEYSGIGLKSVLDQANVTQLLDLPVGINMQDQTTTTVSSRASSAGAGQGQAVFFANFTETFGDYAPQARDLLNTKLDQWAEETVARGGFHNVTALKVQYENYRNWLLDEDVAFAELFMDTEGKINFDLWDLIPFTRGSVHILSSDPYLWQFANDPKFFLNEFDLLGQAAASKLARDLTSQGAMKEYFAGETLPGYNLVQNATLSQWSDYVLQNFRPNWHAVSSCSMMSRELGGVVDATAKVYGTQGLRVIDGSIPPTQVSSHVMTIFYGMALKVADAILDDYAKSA
Sequence of RbMPO-LEKRPEAEA-GOx chimera (Rhodopirellula baltica myeloperoxidase, SEQ ID NO: 10); linker SEQ ID NO: 8; Penicillium amagasakiens glucose oxidase, SEQ ID NO: 12 (P81156 with tags, fused parts or gaps): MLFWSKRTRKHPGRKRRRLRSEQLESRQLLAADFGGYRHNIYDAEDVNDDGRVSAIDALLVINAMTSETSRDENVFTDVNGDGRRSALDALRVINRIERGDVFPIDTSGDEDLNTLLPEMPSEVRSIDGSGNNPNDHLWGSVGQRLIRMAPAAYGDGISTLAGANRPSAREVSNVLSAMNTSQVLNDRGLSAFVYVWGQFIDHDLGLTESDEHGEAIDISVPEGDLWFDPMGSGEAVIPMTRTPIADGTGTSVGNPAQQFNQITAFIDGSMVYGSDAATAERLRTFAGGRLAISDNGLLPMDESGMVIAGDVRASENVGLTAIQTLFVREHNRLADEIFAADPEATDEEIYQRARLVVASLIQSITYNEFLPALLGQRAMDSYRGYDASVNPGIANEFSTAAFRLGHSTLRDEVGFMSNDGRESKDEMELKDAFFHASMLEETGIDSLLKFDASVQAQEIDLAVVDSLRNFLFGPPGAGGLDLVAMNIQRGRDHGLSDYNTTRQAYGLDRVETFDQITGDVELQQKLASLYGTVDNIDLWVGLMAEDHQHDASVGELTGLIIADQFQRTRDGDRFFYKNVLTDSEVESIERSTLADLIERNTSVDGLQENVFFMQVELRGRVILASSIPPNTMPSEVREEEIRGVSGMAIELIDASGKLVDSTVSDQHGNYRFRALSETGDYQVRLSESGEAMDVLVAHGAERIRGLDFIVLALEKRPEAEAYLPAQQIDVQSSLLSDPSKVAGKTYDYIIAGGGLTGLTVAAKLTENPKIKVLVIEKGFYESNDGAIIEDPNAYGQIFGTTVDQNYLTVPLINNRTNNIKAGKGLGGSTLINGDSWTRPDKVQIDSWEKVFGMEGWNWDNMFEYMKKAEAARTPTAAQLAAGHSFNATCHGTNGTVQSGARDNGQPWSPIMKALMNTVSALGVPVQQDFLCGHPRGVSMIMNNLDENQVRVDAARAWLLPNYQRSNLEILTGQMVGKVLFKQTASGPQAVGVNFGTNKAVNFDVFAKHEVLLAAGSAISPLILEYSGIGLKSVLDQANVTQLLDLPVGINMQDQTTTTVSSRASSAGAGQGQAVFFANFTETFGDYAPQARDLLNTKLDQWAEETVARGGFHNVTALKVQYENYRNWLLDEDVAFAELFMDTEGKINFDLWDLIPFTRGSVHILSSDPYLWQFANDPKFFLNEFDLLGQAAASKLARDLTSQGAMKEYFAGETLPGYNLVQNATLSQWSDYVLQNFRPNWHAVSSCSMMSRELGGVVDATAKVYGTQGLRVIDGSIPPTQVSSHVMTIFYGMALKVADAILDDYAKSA

In the case of `OC[C@H]1OC(O)[C@H](O)[C@@H](O)[C@@H]1O` (stereo partly drawn) [glucose], the kcat/KM glucose [1] is reported as 2.47 ± 1.58 M⁻¹ s⁻¹, the kss [2, 13] is reported as “around 10^−3 s^−1” and the “kss/[Glucose]” value [2, 13] is reported as 10^−3 M^−1·s^−1. It also gave a kcat/KM glucose ([2]; monomer 2, fixed NaCl 20 mM, pH7.5) of 2.73 ± 1.5 M⁻¹ s⁻¹, a Km [3] of 3020 ± 770 µM and a kcat [3] of 3.09e-05 s⁻¹. The kcat/KM glucose [4] was 1.1 ± 0.8 M⁻¹ s⁻¹.
With `N#CS` [SCN, thiocyanate] the kcat [5] was 0.31 s⁻¹, the kcat/KM [5] was 1409 M⁻¹ s⁻¹ and the Km ([5]; read-out: KM SCN) was 220 µM.
`OO` [H2O2, hydrogen peroxide] was tested, and the kcat ([6]; dimer/monomer) was 0.00374 s⁻¹, the kcat/KM ([6]; dimer/monomer) was 1508 ± 19.4 M⁻¹ s⁻¹ and 1508 ± 107 M⁻¹ s⁻¹ and the “kss/[H2O2]” value ([6]; excluded) was 0.0051 ± 0.00035 M⁻¹ s⁻¹. It also gave a Km ([6]; dimer/monomer) of 2.48 µM, a Km ([6]; trimer) of 13 ± 1 µM and a Ki ([6]; dimer/monomer) of 4.63 ± 1.05 mM. It also gave a Ki ([6]; trimer) of 0.597 ± 0.211 mM, a kcat ([6]; trimer) of 0.0047 s⁻¹ and a kcat/KM ([6]; trimer) of 361.5 ± 64.5 M⁻¹ s⁻¹. For the same molecule, the kcat ([7]; dimer/monomer) was 0.000576 s⁻¹, the kcat/KM ([7]; dimer/monomer) was 16.08 ± 17.15 M⁻¹ s⁻¹ and the kcat ([7]; excluded) was 0.0001553 s⁻¹. The kcat/KM ([7]; excluded) was 6.82 ± 4.27 M⁻¹ s⁻¹, the Km ([7]; dimer/monomer) was 36 ± 25 µM and the Km ([7]; excluded) was 23 ± 11 µM. The Km ([7]; trimer) was 704 ± 448 µM, the Ki ([7]; dimer/monomer) was 6.3 ± 3.33 mM and the Ki ([7]; excluded) was 17.3 ± 10.6 mM. The Ki ([7]; trimer) was 35.9 ± 22.2 mM, the kcat ([7]; trimer) was 0.0003 s⁻¹ and the kcat/KM ([7]; trimer) was 0.426 ± 0.365 M⁻¹ s⁻¹. The kcat ([8]; dimer/monomer) was 0.00418 s⁻¹, the kcat/KM ([8]; dimer/monomer) was 363.5 ± 382.3 M⁻¹ s⁻¹ and the kcat ([8]; excluded) was 0.0001682 s⁻¹. For the same molecule, the kcat/KM ([8]; excluded) was 1 ± 0.6 M⁻¹ s⁻¹ and 0.998 ± 0.603 M⁻¹ s⁻¹, the kcat ([8]; monomer) was 0.0001798 s⁻¹ and the kcat/KM ([8]; monomer) was 38.3 ± 23.6 M⁻¹ s⁻¹. For the same molecule, the Km ([8]; dimer/monomer) was 11.5 µM, the Km ([8]; excluded) was 168 ± 81 µM and the Km ([8]; monomer) was 4.7 µM. It also gave a Km ([8]; trimer) of 2.86 µM, a Ki ([8]; dimer/monomer) of 0.0329 mM and a Ki ([8]; monomer) of 13.1 ± 4.9 mM. For the same molecule, the Ki ([8]; trimer) was 5.92 ± 3.22 mM, the kcat ([8]; trimer) was 0.0005086 s⁻¹ and the kcat/KM ([8]; trimer) was 177.8 ± 133.1 M⁻¹ s⁻¹. The Km ([9]; read-out: KM H2O2) was 45 ± 15 µM, the Ki [9, 14] was 2.12 ± 1.7 mM and the kcat [9] was 0.000587 s⁻¹. For the same molecule, the kcat/KM [9] was 13.04 ± 6.51 M⁻¹ s⁻¹, the kcat ([10]; monomer 1, 20 mM NaCl, pH7.5) was 0.0003086 s⁻¹ and the kcat/KM ([10]; monomer 1, 20 mM NaCl, pH7.5) was 34.2 ± 19.4 M⁻¹ s⁻¹. The Km ([10]; read-out: KM H2O2, monomer 1, 20 mM NaCl, pH7.5) was 9.02 µM, the Ki ([10]; read-out: Ki H2O2, monomer 1, 20 mM NaCl, pH7.5, substrate inhibition) was 34.9 ± 12.6 mM and the “inhibition by H2O2” value ([10]; result in words) was “weak inhibition”. It also gave a kcat [11] of 0.0012 s⁻¹, a kcat/KM [11] of 4.44 ± 3.15 M⁻¹ s⁻¹ and a Km ([11]; read-out: KM H2O2) of 270 ± 140 µM. The Ki [11, 14] was 1.91 ± 0.48 mM and the “inhibition by H2O2” value [12] was “weak inhibition”.
